Assay results from patent US10000474B2, “Histone deacetylase inhibitors and uses thereof” (MUSC FOUNDATION FOR RESEARCH DEVELOPMENT, priority 2014, dated 2018).
Counter-ions that a name gives are not always drawn.

Assays:
Assay type in all cases: biochemical
Conditions in all cases: test concentration not given; average of triplicate
[1] = molecular target: T1, Recombinant human HDAC3/NcoR2 (Homo sapiens, UniProt O15379); test: HDAC inhibitory assay, HDAC3 (Boc-Lys(Ac)-AMC substrate)
T1 construct: purchased BPS Biosciences
Protocol: (§1) The compounds of Examples 1-12 and 14-16 were evaluated for their ability to act as inhibitors of human HDAC. The compound of Example 13 was not tested. Recombinant human HDAC1, HDAC2, HDAC3/NcoR2, HDAC5, HDAC6, HDAC8, HDAC9, HDAC10 and HDAC11 were purchased from BPS Biosciences. Recombinant human HDAC4 and HDAC7 were purchased from Millipore. The substrate Boc-Lys(Ac)-AMC and Boc-Lys(Tfa)-AMC were purchased from Bachem. The substrate Ac-RHK(Ac)K(Ac)-AMC was purchased from Enzo Life Sciences. Due to the different specific activities of each isoform, different amount of enzyme was used in each isoform screening assay. In these assays, trichostatin A (TSA), suberanilohydroxamic acid and diphenylacetohydroxamic acid (DPAHA) were employed as positive controls. All determinations were carried out in triplicate, and reported values were the average of these determinations, which in no case varied by more than 5%.
(§2) Then 25 μl of the Boc-Lys(Ac)-AMC substrate (50 μM final concentration) was added and incubated at 37° C. for 30-60 min, and followed by adding 50 μl of developer (1 mg/ml trypsin and 1 μM TSA). The last step was reading the samples in a SpectraMax M5 plate reader (Molecular Devices) at an excitation wavelength of 360 nm and an emission wavelength of 460 nm.

Recombinant human HDAC11 = molecular target: T2, Recombinant human HDAC11 (Homo sapiens, UniProt Q96DB2); test: HDAC inhibitory assay, HDAC11 (Boc-Lys(Tfa)-AMC substrate)
T2 construct: purchased BPS Biosciences
T2 sequence (Q96DB2 1-347): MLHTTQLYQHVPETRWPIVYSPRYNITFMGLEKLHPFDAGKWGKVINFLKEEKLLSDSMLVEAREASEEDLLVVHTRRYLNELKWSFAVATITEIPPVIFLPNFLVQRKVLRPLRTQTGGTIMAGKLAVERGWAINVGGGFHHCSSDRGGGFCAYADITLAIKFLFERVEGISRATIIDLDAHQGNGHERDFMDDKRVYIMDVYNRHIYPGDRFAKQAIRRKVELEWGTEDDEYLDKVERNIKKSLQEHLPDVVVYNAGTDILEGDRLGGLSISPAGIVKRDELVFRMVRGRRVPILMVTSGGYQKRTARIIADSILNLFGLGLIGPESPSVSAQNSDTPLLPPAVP
Protocol: as §1
For evaluating the inhibition of class IIa HDACs (HDAC4, HDAC5, HDAC7 and HDAC9) and class IV HDAC (HDAC11), 10 μl of test samples were first incubated with 1 ng HDAC4 (specific activity=15400 pmol/min/μg), 5 ng HDAC5 (specific activity=2521 pmol/min/μg), 1 ng HDAC7 (specific activity=26340 pmol/min/μg), 5 ng HDAC9 (specific activity=3000 pmol/min/μg), and 500 ng HDAC11 (specific activity=1.8 pmol/min/μg) respectively. Then 25 μl of the Boc-Lys(Tfa)-AMC substrate (50 μM final concentration) was added and incubated at 37° C. for 30-60 min, and followed by adding 50 μl of developer. The last step was to read the samples in a SpectraMax M5 plate reader (Molecular Devices) at an excitation wavelength of 360 nm and an emission wavelength of 460 nm.

Recombinant human HDAC6 = molecular target: T3, Recombinant human HDAC6 (Homo sapiens, UniProt Q9UBN7); test: HDAC inhibitory assay, HDAC6 (Boc-Lys(Ac)-AMC substrate)
T3 construct: purchased BPS Biosciences
T3 sequence (Q9UBN7 1-1215): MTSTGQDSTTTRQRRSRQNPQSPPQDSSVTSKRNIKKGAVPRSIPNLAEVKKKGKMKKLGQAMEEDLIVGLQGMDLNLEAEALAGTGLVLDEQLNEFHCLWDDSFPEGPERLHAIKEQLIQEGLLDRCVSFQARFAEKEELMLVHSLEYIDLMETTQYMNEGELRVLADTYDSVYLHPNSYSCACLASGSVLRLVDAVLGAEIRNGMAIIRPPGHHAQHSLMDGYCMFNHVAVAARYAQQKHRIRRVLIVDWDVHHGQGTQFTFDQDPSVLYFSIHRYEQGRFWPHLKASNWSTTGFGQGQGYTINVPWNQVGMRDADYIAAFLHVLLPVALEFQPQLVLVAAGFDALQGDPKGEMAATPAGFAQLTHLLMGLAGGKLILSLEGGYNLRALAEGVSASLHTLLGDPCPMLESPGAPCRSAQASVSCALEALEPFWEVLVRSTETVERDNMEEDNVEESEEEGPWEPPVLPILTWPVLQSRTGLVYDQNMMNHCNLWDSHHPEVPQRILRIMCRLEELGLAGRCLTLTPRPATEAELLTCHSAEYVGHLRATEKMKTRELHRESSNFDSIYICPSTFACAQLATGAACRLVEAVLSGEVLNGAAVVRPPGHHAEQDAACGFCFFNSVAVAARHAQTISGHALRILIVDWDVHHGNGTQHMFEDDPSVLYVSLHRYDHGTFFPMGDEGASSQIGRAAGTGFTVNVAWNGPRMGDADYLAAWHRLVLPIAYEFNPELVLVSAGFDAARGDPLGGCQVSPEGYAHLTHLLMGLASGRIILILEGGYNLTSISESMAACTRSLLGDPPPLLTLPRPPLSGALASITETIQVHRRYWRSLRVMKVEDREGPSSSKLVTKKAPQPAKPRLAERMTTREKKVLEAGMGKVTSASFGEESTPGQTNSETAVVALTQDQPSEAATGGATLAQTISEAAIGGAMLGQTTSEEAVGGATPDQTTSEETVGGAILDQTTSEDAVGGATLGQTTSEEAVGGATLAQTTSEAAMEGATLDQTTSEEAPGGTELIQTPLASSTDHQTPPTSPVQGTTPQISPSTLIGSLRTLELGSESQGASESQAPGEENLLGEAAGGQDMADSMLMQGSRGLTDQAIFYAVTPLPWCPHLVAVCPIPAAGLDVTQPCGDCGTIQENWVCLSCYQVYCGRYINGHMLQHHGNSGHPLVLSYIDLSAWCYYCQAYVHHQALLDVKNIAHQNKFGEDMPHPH
Protocol: as §1, §2

T1 sequence (O15379 whole entry): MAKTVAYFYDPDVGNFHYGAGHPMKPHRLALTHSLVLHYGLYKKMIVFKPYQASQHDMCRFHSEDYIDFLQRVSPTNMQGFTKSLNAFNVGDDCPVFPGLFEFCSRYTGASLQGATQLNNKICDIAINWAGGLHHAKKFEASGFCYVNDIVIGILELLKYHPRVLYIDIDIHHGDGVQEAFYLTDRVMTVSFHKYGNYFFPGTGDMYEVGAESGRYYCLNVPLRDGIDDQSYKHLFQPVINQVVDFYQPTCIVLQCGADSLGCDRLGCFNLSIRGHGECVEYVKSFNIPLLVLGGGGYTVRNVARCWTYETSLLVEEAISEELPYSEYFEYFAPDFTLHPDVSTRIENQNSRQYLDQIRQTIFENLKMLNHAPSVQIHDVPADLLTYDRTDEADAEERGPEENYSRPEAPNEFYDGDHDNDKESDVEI
T1 sequence (Q9Y618 395-489 partner limits assumed): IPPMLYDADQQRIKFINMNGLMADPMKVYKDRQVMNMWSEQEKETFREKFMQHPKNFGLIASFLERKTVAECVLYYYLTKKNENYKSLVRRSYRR

With `O=C(NCCCCN1C(=O)c2ccccc2C1=O)c1coc(-c2ccccc2O)n1` [Example 9, N-(4-(1,3-Dioxoisoindolin-2-yl)butyl)-2-(2-hydroxyphenyl)oxazole-4-carboxamide] the “HDAC 3 inhibitory activity” value [1] was 11.0%, the “HDAC 11 inhibitory activity” value (Recombinant human HDAC11) was 33.8% and the “HDAC 6 inhibitory activity” value (Recombinant human HDAC6) was 46.0%.

`O=C(NCCC(c1ccccc1)c1ccccc1)c1coc(-c2ccccc2O)n1` [Example 4, N-(3,3-Diphenylpropyl)-2-(2-hydroxyphenyl)oxazole-4-carboxamide] was tested, and the “HDAC 3 inhibitory activity” value [1] was 37.5%, the “HDAC 11 inhibitory activity” value (Recombinant human HDAC11) was 45.2% and the “HDAC 6 inhibitory activity” value (Recombinant human HDAC6) was 48.1%.

With `O=C(Nc1ccccc1)c1ccc(CNC(=O)c2coc(-c3ccccc3O)n2)cc1` [Example 15, 2-(2-Hydroxyphenyl)-N-(4-(phenylcarbamoyl)benzyl)oxazole-4-carboxamide] the “HDAC 3 inhibitory activity” value [1] was 15.8%, the “HDAC 11 inhibitory activity” value (Recombinant human HDAC11) was 20.1% and the “HDAC 6 inhibitory activity” value (Recombinant human HDAC6) was 30.8%.

For `O=C(NCCCCNCCC(c1ccccc1)c1ccccc1)c1coc(-c2ccccc2O)n1` [Example 12, N-(4-((3,3-Diphenylpropyl)amino)butyl)-2-(2-hydroxyphenyl)oxazole-4-carboxamide hydrochloride], the “HDAC 3 inhibitory activity” value [1] was 18.1%, the “HDAC 11 inhibitory activity” value (Recombinant human HDAC11) was 39.1% and the “HDAC 6 inhibitory activity” value (Recombinant human HDAC6) was 28.9%.

`O=C(O)c1ccc(CNC(=O)c2coc(-c3ccccc3O)n2)cc1` [Example 14, 4-((2-(2-Hydroxyphenyl)oxazole-4-carboxamido)methyl)benzoic acid] was tested, and the “HDAC 3 inhibitory activity” value [1] was 39.7%, the “HDAC 11 inhibitory activity” value (Recombinant human HDAC11) was 49.2% and the “HDAC 6 inhibitory activity” value (Recombinant human HDAC6) was 60.3%.

In the case of `O=C(NCC(c1ccccc1)c1ccccc1)c1coc(-c2ccccc2O)n1` [Example 3, N-(2,2-Diphenylethyl)-2-(2-hydroxyphenyl)oxazole-4-carboxamide], the “HDAC 3 inhibitory activity” value [1] is reported as 23.7%, the “HDAC 11 inhibitory activity” value (Recombinant human HDAC11) is reported as 39.5% and the “HDAC 6 inhibitory activity” value (Recombinant human HDAC6) is reported as 49.1%.

`O=C(Nc1ccc(-c2ccccc2)cc1)c1coc(-c2ccccc2O)n1` [Example 5, N-([1,1′-Biphenyl]-4-yl)-2-(2-hydroxyphenyl)oxazole-4-carboxamide] was tested, and the “HDAC 3 inhibitory activity” value [1] was 30.2%, the “HDAC 11 inhibitory activity” value (Recombinant human HDAC11) was 28.4% and the “HDAC 6 inhibitory activity” value (Recombinant human HDAC6) was 45.6%.

For `O=C(NCc1cccc2ccccc12)c1coc(-c2ccccc2O)n1` [Example 7, 2-(2-Hydroxyphenyl)-N-(naphthalen-1-ylmethyl)oxazole-4-carboxamide], the “HDAC 3 inhibitory activity” value [1] was 32.3%, the “HDAC 11 inhibitory activity” value (Recombinant human HDAC11) was 49.9% and the “HDAC 6 inhibitory activity” value (Recombinant human HDAC6) was 40.4%.

For `O=C(NCc1ccc(-c2ccccc2)cc1)c1coc(-c2ccccc2O)n1` [Example 6, N-([1,1′-Biphenyl]-4-ylmethyl)-2-(2-hydroxyphenyl)oxazole-4-carboxamide], the “HDAC 3 inhibitory activity” value [1] was 40.1%, the “HDAC 11 inhibitory activity” value (Recombinant human HDAC11) was 47.8% and the “HDAC 6 inhibitory activity” value (Recombinant human HDAC6) was 47.8%.

`O=C(NCCCCNC(=O)C(c1ccccc1)c1ccccc1)c1coc(-c2ccccc2O)n1` [Example 10, N-(4-(2,2-Diphenylacetamido)butyl)-2-(2-hydroxyphenyl)oxazole-4-carboxamide] was tested, and the “HDAC 3 inhibitory activity” value [1] was 4.0%, the “HDAC 11 inhibitory activity” value (Recombinant human HDAC11) was 30.1% and the “HDAC 6 inhibitory activity” value (Recombinant human HDAC6) was 26.7%.

`O=C(NCCc1c[nH]c2ccccc12)c1coc(-c2ccccc2O)n1` [Example 8, N-(2-(1H-Indol-3-yl)ethyl)-2-(2-hydroxyphenyl)oxazole-4-carboxamide] was tested, and the “HDAC 3 inhibitory activity” value [1] was 18.9%, the “HDAC 11 inhibitory activity” value (Recombinant human HDAC11) was 26.0% and the “HDAC 6 inhibitory activity” value (Recombinant human HDAC6) was 30.8%.

For `O=C(CNC(=O)c1coc(-c2ccccc2O)n1)Nc1ccccc1` [Example 16, 2-(2-Hydroxyphenyl)-N-(2-oxo-2-(phenylamino)ethyl)oxazole-4-carboxamide], the “HDAC 3 inhibitory activity” value [1] was 36.9%, the “HDAC 11 inhibitory activity” value (Recombinant human HDAC11) was 46.6% and the “HDAC 6 inhibitory activity” value (Recombinant human HDAC6) was 59.9%.

For `O=C(NC(c1ccccc1)c1ccccc1)c1coc(-c2ccccc2O)n1` [Example 2, N-Benzhydryl-2-(2-hydroxyphenyl)oxazole-4-carboxamide], the “HDAC 3 inhibitory activity” value [1] was 37.8%, the “HDAC 11 inhibitory activity” value (Recombinant human HDAC11) was 23.1% and the “HDAC 6 inhibitory activity” value (Recombinant human HDAC6) was 61.6%.

`O=C(Nc1ccccc1)c1coc(-c2ccccc2O)n1` [Example 1, 2-(2-Hydroxyphenyl)-N-phenyloxazole-4-carboxamide] was tested, and the “HDAC 3 inhibitory activity” value [1] was 22.5%, the “HDAC 11 inhibitory activity” value (Recombinant human HDAC11) was 21.8% and the “HDAC 6 inhibitory activity” value (Recombinant human HDAC6) was 50.3%.

With `O=C(NCCCCNC(=S)NCCC(c1ccccc1)c1ccccc1)c1coc(-c2ccccc2O)n1` [Example 11, N-(4-(3-(3,3-Diphenylpropyl)thioureido)butyl)-2-(2-hydroxyphenyl)oxazole-4-carboxamide] the “HDAC 3 inhibitory activity” value [1] was 3.7%, the “HDAC 11 inhibitory activity” value (Recombinant human HDAC11) was 69.9% and the “HDAC 6 inhibitory activity” value (Recombinant human HDAC6) was 50.2%.
